Measurements reported in US20140243422A1, “METHODS OF TREATING BEHAVIORAL AND PSYCHIATRIC DISORDERS” (ELAN PHARMACEUTICALS, INC., priority 2011, published 2014).

Assays:
[1] = test system: patients with mild to moderate AD (MMSE 16-26); experiment: Phase 2 trial: Neuropsychiatric Inventory (NPI-12) scores, cluster scores and emergence of new NPS; assay type: in vivo, human
From the text: Several scales have been used for the assessment of BPSD. These include scales that have been specifically designed for studying NPS in patients with dementia, such as the “Behavioral Pathology in AD Rating Scale” (BEHAVE-AD, Reisberg et al. BEHAVE-AD: A clinical rating scale for the assessment of pharmacologically remediable behavioral symptomatology in Alzheimer's disease. In: Altman H J, editor. Alzheimer's Disease: Problems, prospects, and perspectives. Plenum; New York: 1987. pp. 1-161996), CERAD behavior rating scale for dementia (BRSD, Tariot 1996, International Psychogeriatrics, 8(Suppl. 3):317-320), and the Neuropsychiatric Inventory (NPI, Cummings et al. 1994, Neurology. 1994; 44:2308-14). The NPI which was designed to evaluate the broad range of behavioral symptoms that may develop in dementia patients, is a well validated instrument and has been widely used in BPSD studies and in AD treatment trials. The original version assessed 10 symptoms or items, including: delusions, hallucinations, agitation/aggression, depression/dysphoria, anxiety, apathy, irritability, euphoria/elation, disinhibition, and aberrant motor behavior; and was subsequently updated to include appetite changes and nighttime behaviors (sleep disturbances). The NPI is administered by a trained individual as a structured interview with the patient's caregiver. Each item is assessed by a scripted screening question, and the frequency and severity of each item is scored from 0-4 (0: absent, 1: occasional or less than once per week to 4 occurs at least daily), and from 1-3 (1: mild or produces little distress in patient; 2: moderate or more disturbing to patient but can be re-directed by caregiver; and 3: severe or very disturbing to patient and difficult to re-direct). The total item-score is then derived from frequency multiplied by the severity score; and the total NPI score (NPI-T) is derived from addition of all item scores, with the range of scores being from 0 (no NPS at all) to 144 (all 12 NPS are present at maximum severity at daily basis). In the majority of the drug trials in Mild/Moderate AD, the mean total NPI scores are ˜10-12 at baseline. The Phase 2 study described in the example below utilized the NPI-12 item assessment; and the mean total NPI scores were between 8 and 10 at baseline. This baseline severity is slightly lower than the range reported in many Mild to Moderate AD trials reported in the literature.
In a Phase 2, parallel arm, dose-ranging, placebo-controlled, double-blind, multicenter trial in patients with mild to moderate AD (MMSE 16-26), scyllo-inositol was administered to study subjects in immediate release tablets twice daily at the dosage level set for each study arm or identical-appearing placebo tablets were administered in the control arm. […] The study included neuropsychological assessments using the NPI-12 item scale, as well as assessments of scyllo-Inositol (SI) and myo-inositol (MI) brain levels using magnetic resonance spectroscopy (MRS).
The present study was a dose ranging study in Mild and Moderate AD patients (defined as having MMSE scores of 16-26 inclusive), and included 3 doses of scyllo-insoitol given bid (250 mg, 1000 mg, and 2000 mg) and placebo. The study was of 78 weeks duration and enrolled a total of 353 patients, and 351 received study drug (safety population). Due to safety findings in the 2 highest dose groups, these 2 groups were discontinued and the study's final efficacy analysis was based only on the 250 mg and placebo groups. […] In the overall study population, total randomized to all 4 dose groups=353, total that received study drug=351 (safety population, at any dose). For placebo and 250 mg group, the overall m-ITT (modified intent-to-treat)=166, overall PPS (per protocol set)=96.
A potentially disease-modifying drug, by altering regional neuronal dysfunction, may prevent or delay the emergence of abnormal behaviors as quantified by the NPI outcomes. […]

CSF Abeta42 = experiment: Phase 2 trial: cerebrospinal fluid Abeta42; assay type: in vivo, human; details: 250 mg bid; statistically significant
Experimental: The effect of the 250 mg dose on cerebrospinal fluid (CSF) Abeta42 reduction (˜27% compared to baseline) was statistically significant, but the higher doses seemed to provide further Abeta42 reduction. Despite the dose-dependent effects of scyllo-inositol on CSF Abeta42, the 2 high doses consistently produced smaller effects on clinical endpoints than the 250 mg dose. This observed dissociation between the dose-dependent effects on CSF Abeta42 and the clinically measured NPI outcomes supports the concept that scyllo Inositol clinical effects are mediated by two distinct mechanisms. These mechanisms include: 1. reduction of brain amyloid load and resulting synaptic toxicity which has previously been disclosed affect memory and reasoning/problem solving, but not NPS, and 2. down-regulation of brain myo-inositol levels with secondary salutary effects on neuronal function (Machado-Vieira et al. 2009). The only other MRS studies measuring in vivo brain levels of myo-inositol and scyllo-inositol after scyllo-inositol administration were in transgenic mice. (Choi, et al. 2010, Neuropharmacology, 59(4-5): 353-357). […] The details of the Phase 2 data are described below.

[2] = 250 mg bid vs placebo, Mild AD, m-ITT

SMILES: O[C@H]1[C@H](O)[C@@H](O)[C@H](O)[C@@H](O)[C@@H]1O [scyllo-inositol]
- Score Difference (Summary Statistics), Affective Syndrome (6 symptoms) ([1]; 250 mg bid vs placebo, Mild AD MMSE 22-26, m-ITT): +3.47
- Score Difference (MMRM), Affective Syndrome (Depression, Anxiety, Agitation, Nighttime Behavior, Appetite Changes, Apathy) ([1]; 250 mg bid vs placebo, Mild AD MMSE 22-26, m-ITT, factor-analysis cluster): +1.36
- Score Difference (MMRM), Apathy [1, 2]: −0.35
- Score Difference (MMRM), Behavioral cluster: Aberrant Motor/Nighttime Behaviors [1, 2]: +0.05
- Score Difference (MMRM), Frontal cluster: Elation and Disinhibition [1, 2]: +0.33
- Score Difference (MMRM), Psychotic cluster: Delusions and Hallucinations [1, 2]: −0.29
- Score Difference (MMRM), Affective: Depression and Anxiety ([1]; 250 mg bid vs placebo, Moderate AD MMSE 16-21, m-ITT): +0.94
- improvement of Affective Syndrome score change compared to placebo group, by MMRM ([1]; 250 mg bid, Mild AD MMSE 22-26): 35%
- improvement of Affective Syndrome score change compared to placebo group, by summary statistics ([1]; 250 mg bid, Mild AD MMSE 22-26): 91%
- NPI total score benefit compared to placebo ([1]; 250 mg bid, Mild MMSE 22-26, m-ITT, 78 weeks): 44%
- NPI total score numerical difference from placebo ([1]; 250 mg bid, Mild MMSE 22-26, m-ITT, 78 weeks, not statistically significant): ~2 points
- proportion of patients who developed at least 2 new symptoms, lower versus placebo ([1]; 250 mg bid, Mild m-ITT MMSE 22-26, over 78 weeks, p<0.05): 21.5%
- NPI total score improvement versus placebo ([1]; 250 mg bid, Moderate MMSE 16-21, PP analysis): ~50%
- NPI total score, better than placebo ([1]; 250 mg bid, Moderate MMSE 16-21, PP analysis, 78 weeks, not statistically significant): ~4 points
- NPI total score versus placebo ([1]; 250 mg bid, Moderate MMSE 16-21, m-ITT analysis): did not show significant differences from placebo
- proportion of patients who developed at least 2 new symptoms, lower versus placebo ([1]; 250 mg bid, Moderate m-ITT MMSE 16-21, over 78 weeks, p=0.33): 12.4%
- proportion of patients who developed at least 4 new symptoms, lower versus placebo ([1]; 250 mg bid, Moderate m-ITT MMSE 16-21, over 78 weeks, p=0.34): 12.1%
- increase in prevalence of irritability, baseline to end of study ([1]; 250 mg group, Mild, week 78): 10%
- prevalence of apathy, anxiety, agitation, appetite and sleep change, baseline to end of study ([1]; 250 mg group, Mild, week 78): remained stable
- emergence of depression, anxiety, appetite change, agitation and apathy at any time during the study ([1]; 250 mg, Mild MMSE 22-26): decreases the emergence
- emergence of NPS at any time during the study ([1]; 250 mg, Moderate MMSE 16-21): decreased emergence of most NPS
- emergence of irritability ([1]; 250 mg, Moderate MMSE 16-21): more prevalent with treatment
- Score Difference (MMRM), Affective: Depression and Anxiety ([1]; Moderate AD, PPS): +1.07
- Score Difference (MMRM), Apathy ([1]; Moderate AD, PPS): +0.14
- Score Difference (MMRM), Behavioral: Aberrant Motor, Nighttime Behaviors ([1]; Moderate AD, PPS): +1.42
- Score Difference (MMRM), Frontal: Elation and Disinhibition ([1]; Moderate AD, PPS): +0.68
- Score Difference (MMRM), Psychotic: Delusions and Hallucinations ([1]; Moderate AD, PPS): +1.32
- Score Difference (summary statistics), Affective: Depression and Anxiety ([1]; Moderate AD, PPS): +0.06
- Score Difference (summary statistics), Apathy ([1]; Moderate AD, PPS): +0.68
- Score Difference (summary statistics), Behavioral: Aberrant Motor, Nighttime Behaviors ([1]; Moderate AD, PPS): +1.96
- Score Difference (summary statistics), Frontal: Elation and Disinhibition ([1]; Moderate AD, PPS): +0.53
- Score Difference (summary statistics), Psychotic: Delusions and Hallucinations ([1]; Moderate AD, PPS): +0.71
- Score Difference (MMRM), Apathy ([1]; Moderate AD, m-ITT): +0.97
- Score Difference (MMRM), Behavioral: Aberrant Motor, Nighttime Behaviors ([1]; Moderate AD, m-ITT): +0.11
- Score Difference (MMRM), Frontal: Elation and Disinhibition ([1]; Moderate AD, m-ITT): +0.56
- Score Difference (MMRM), Psychotic: Delusions and Hallucinations ([1]; Moderate AD, m-ITT): −0.52
- Score Difference (summary statistics), Affective: Depression and Anxiety ([1]; Moderate AD, m-ITT): −0.15
- Score Difference (summary statistics), Apathy ([1]; Moderate AD, m-ITT): +1.09
- Score Difference (summary statistics), Behavioral: Aberrant Motor, Nighttime Behaviors ([1]; Moderate AD, m-ITT): +1.76
- Score Difference (summary statistics), Frontal: Elation and Disinhibition ([1]; Moderate AD, m-ITT): +0.48
- Score Difference (summary statistics), Psychotic: Delusions and Hallucinations ([1]; Moderate AD, m-ITT): +0.34
- emergence of depression and/or anxiety by plasma AUC quartile ([1]; plasma AUC corresponding to the 250 mg bid dose (second quartile)): significant decrease
- CSF Abeta42 reduction compared to baseline (CSF Abeta42): 27%
